Data from publication PMC10838953.
Several values for one entry are separate records, joined by “and”; a condition that tells them apart may be missing. Equal entries are not always repeated.

Legend:
AKT (S129) = settings: 786-O cells; 48 h
[1] = tested on: AKT (S129) in 786-O cells
[2] = tested on: tumor slices of clear cell renal carcinoma (786-O-luc xenograft); settings: 10 μM CX-4945, 5 μM AB668
caspase-3 in 786-O cells = settings: 72 h, compounds at 20 μM
HeLa cells = settings: cited from earlier work
HEK293 cell line = settings: nontumor HEK293 cell line; cited from earlier work

O=C(O)c1ccc2c(c1)nc(Nc1cccc(Cl)c1)c1ccncc12 [CX-4945, silmitasertib]
phosphorylation of S129AKT (AKT (S129)): decreased, in a dose-dependent manner | CK2 inhibition 8 h after inhibitor removal (CK2 in 786-O cells): CK2 activity was restored to its initial level | pAKTS129 / AKT band quantification [1]: 0.3 and 0.4 | cell viability of tumor slices [2]: had no effect | caspase-3 activation (caspase-3 in 786-O cells): induced caspase-3 activation | NES: Cell recruitment (pro-inflammatory response) (786-O cells): 1.563 | NES: Constitutive Signaling by NOTCH1 HD+PEST Domain Mutants (786-O cells): -1.497 | NES: Constitutive Signaling by NOTCH1 PEST Domain Mutants (786-O cells): -1.497 | NES: Export of Viral Ribonucleoproteins from Nucleus (786-O cells): 1.432 | NES: G alpha (12/13) signalling events (786-O cells): -1.412 | NES: HCMV Late Events (786-O cells): 1.511 | NES: Infection with Mycobacterium tuberculosis (786-O cells): 1.475 | NES: Interferon alpha/beta signaling (786-O cells): -1.554 | NES: Purinergic signaling in leishmaniasis infection (786-O cells): 1.563 | NES: Response of Mtb to phagocytosis (786-O cells): 1.605 | NES: Rev-mediated nuclear export of HIV RNA (786-O cells): 1.427 | NES: Signaling by NOTCH1 HD+PEST Domain Mutants in Cancer (786-O cells): -1.497 | NES: Signaling by NOTCH1 PEST Domain Mutants in Cancer (786-O cells): -1.497 | NES: Signaling by NOTCH1 in Cancer (786-O cells): -1.497 | NES: Uptake and actions of bacterial toxins (786-O cells): 1.428 | enrichmentScore: Cell recruitment (pro-inflammatory response) (786-O cells): 0.6607 | enrichmentScore: Constitutive Signaling by NOTCH1 HD+PEST Domain Mutants (786-O cells): -0.4974 | enrichmentScore: Constitutive Signaling by NOTCH1 PEST Domain Mutants (786-O cells): -0.4974 | enrichmentScore: Export of Viral Ribonucleoproteins from Nucleus (786-O cells): 0.45 | enrichmentScore: G alpha (12/13) signalling events (786-O cells): -0.5156 | enrichmentScore: HCMV Late Events (786-O cells): 0.4357 | enrichmentScore: Infection with Mycobacterium tuberculosis (786-O cells): 0.5692 | enrichmentScore: Purinergic signaling in leishmaniasis infection (786-O cells): 0.6607 | enrichmentScore: Response of Mtb to phagocytosis (786-O cells): 0.6338 | enrichmentScore: Rev-mediated nuclear export of HIV RNA (786-O cells): 0.4457 | enrichmentScore: Signaling by NOTCH1 HD+PEST Domain Mutants in Cancer (786-O cells): -0.4974 | enrichmentScore: Signaling by NOTCH1 PEST Domain Mutants in Cancer (786-O cells): -0.4974 | enrichmentScore: Signaling by NOTCH1 in Cancer (786-O cells): -0.4974 | enrichmentScore: Uptake and actions of bacterial toxins (786-O cells): 0.5866 | NES: SARS-CoV-1 activates/modulates innate immune responses (786-O cells; R-HSA-9692916, CX4945 vs DMSO): 1.374 | enrichmentScore: SARS-CoV-1 activates/modulates innate immune responses (786-O cells; R-HSA-9692916, CX4945 vs DMSO): 0.4726 | NES: SARS-CoV-1 modulates host translation machinery (786-O cells; R-HSA-9735869, CX4945 vs DMSO): -1.391 | enrichmentScore: SARS-CoV-1 modulates host translation machinery (786-O cells; R-HSA-9735869, CX4945 vs DMSO): -0.4335

O=C(CCC(=O)NCCc1ccc(Cl)c(Cl)c1)NCCCCn1cnc2c(Br)c(Br)c(Br)c(Br)c21 [KN2]
cytotoxicity (HeLa cells): 6 µM | cytotoxicity (HEK293 cell line): 16 µM

CCC(=O)Nc1cc(Nc2cc(NC3CC3)n3ncc(C#N)c3n2)ccc1C [SGC-CK2-1]
phosphorylation of S129AKT (AKT (S129)): decreased, in a dose-dependent manner | CK2 inhibition 8 h after inhibitor removal (CK2 in 786-O cells): persisted | pAKTS129 / AKT band quantification [1]: 0.4 | caspase-3 activation (caspase-3 in 786-O cells): did not activate caspase-3

CN[C@@H]1C[C@H]2O[C@@](C)([C@@H]1OC)n1c3ccccc3c3c4c(c5c6ccccc6n2c5c31)C(=O)NC4 [staurosporine]
caspase-3 activation (caspase-3 in 786-O cells): induced caspase-3 activation
